In US9365522B2, “Pyrazole amide derivative” (AMGEN INC., priority 2015, dated 2016):

molecular target: T1, human RORγ-LBD (Homo sapiens, UniProt P51449); assay: ROR gamma coactivator peptide recruitment Alphascreen assay (RORγ-LBD binding to GRIP1 coactivator peptide); assay type: biochemical; settings: 5 nM human RORγ-LBD, 30 nM 7-β-hydroxycholesterol, 50 nM biotinylated GRIP1 coactivator peptide, overnight incubation at room temperature; read-out: result (pIC50, RORγ coactivator peptide recruitment Alphascreen assay) (converted)
T1 construct: made in house; host or cells: E. coli (BL-21)
T1 sequence (P51449 262-518): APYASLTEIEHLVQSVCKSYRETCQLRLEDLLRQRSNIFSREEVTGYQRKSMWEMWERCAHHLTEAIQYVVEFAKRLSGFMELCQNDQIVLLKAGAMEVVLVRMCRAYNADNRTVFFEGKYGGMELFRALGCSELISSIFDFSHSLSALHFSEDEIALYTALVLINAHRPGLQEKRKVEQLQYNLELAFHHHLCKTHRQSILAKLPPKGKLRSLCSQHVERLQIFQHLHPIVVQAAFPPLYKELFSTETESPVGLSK
Description: Alphascreen™ is a bead-based amplified homogenous luminescent proximity assay that can be used for measuring the effect of compounds on protein-protein interactions. When biological interactions bring donor and acceptor beads into close proximity, reactive oxygen, generated upon laser excitation of the donor beads, initiates a luminescence/fluorescence cascade in the acceptor beads that leads to a highly amplified signal that can be measured as light in the 520-620 nm range. When the acceptor and donor beads are not in proximity, the reactive oxygen decays and only a very low background signal is generated.
An in vitro assay to assess inhibition of RORγ binding to the coactivator GRIP1 was established using Alphascreen™ technology. The interaction between nuclear receptors (NR) and coactivator proteins is a key step in signal transduction from the receptor to the transcriptional machinery and can be measured in vitro using only the ligand binding domain of the nuclear receptor and a peptide containing a coactivator protein LXXLL nuclear receptor binding motif
For the RORγ construct used in the coactivator recruitment assay, nucleotides corresponding to the ligand binding domain (LBD) of wild type human RORγ (amino acids 262-518 of Genbank Accession No. NM_005060.3) were cloned into the pET24 expression vector (Novagen), downstream of in-frame N-terminal 6×His and Flag tag sequences. Recombinant 6×His:Flag-tagged human RORγ-LBD protein was expressed in E. coli (BL-21) and purified by affinity chromatography on a nickel Sepharose column, followed by anion exchange chromatography.
A 4× assay mixture of 6×His:Flag-tagged human RORγ-LBD with the agonist ligand 7-β-hydroxycholesterol was prepared in assay buffer (50 mM HEPES pH 7.4, BSA 0.05%, 150 mM NaCl, 5 mM MgCl2, 1 mM DTT, 0.01% Tween-20). For control wells a 4× mixture of 6×His:Flag-tagged human ROR gamma LBD alone was also prepared.
A 4× stock of biotinylated coactivator peptide containing the LXXLL motif from GRIP1 (Biotin-[…]) was prepared in assay buffer.
A 4×detection mixture of nickel chelate Alphascreen™ acceptor beads (PerkinElmer) and streptavidin Alphascreen™ donor beads (PerkinElmer) was prepared in assay buffer.
Compounds to be tested were arranged in a pre-dose 384-well mother plate serially diluted 1 in 2 over 22 columns, in 100% DMSO, at 40× the final test concentration, from a high concentration of 4 mM. DMSO with no compound was placed in control columns. The compounds were robotically dispensed directly into assay plates containing assay buffer to a 4× final test concentration.
Following compound addition, the 6×His:Flag-tagged human RORγ-LBD plus 7-β-hydroxycholesterol assay mixture, biotinylated coactivator peptide and detection mixture were added. Final assay conditions were 5 nM 6×His:Flag-tagged human RORγ-LBD, 30 nM 7-β-hydroxycholesterol, 50 nM biotinylated coactivator peptide, 2.5 ug/ml nickel acceptor beads and 10 ug/ml streptavidin donor beads. The final concentration of DMSO in the assay was 2.5%.
After overnight incubation at room temperature plates were read on and Envision™ plate reader (PerkinElmer).
Data was plotted and pIC50 values were calculated using the Genedata Screener™ data analysis suite (Genedata).

| Structure (SMILES) | IC50 [nM] |
| --- | --- |
| C=CC[C@@H]1CCCC[C@@H]1n1ncc(C(=O)N(CC(=O)c2c(Cl)cncc2Cl)CC(C)(C)C)c1C(F)(F)F (stereo in doubt) [Example 586, N-(2-(3,5-dichloro-4-pyridinyl)-2-oxoethyl)-N-(2,2-dimethylpropyl)-1-((1S,2S)-2-(2-propen-1-yl)cyclohexyl)-5-(trifluoromethyl)-1H-pyrazole-4-carboxamide] | 331 |
| O=C(CN(CC1(F)CCCC1)C(=O)c1cnn(C2CCC(C(=O)O)CC2)c1C(F)(F)F)c1c(Cl)cccc1Cl (stereo in doubt) [Example 603, cis-4-(4-((2-(2,6-dichlorophenyl)-2-oxoethyl)((1-fluorocyclopentyl)methyl)carbamoyl)-5-(trifluoromethyl)-1H-pyrazol-1-yl)cyclohexanecarboxylic acid] | 49 |
| O=C(O)C1CCC(n2ncc(C(=O)N(CCc3c(Cl)cncc3Cl)CC3(F)CCCC3)c2C(F)(F)F)CC1 (stereo in doubt) [Example 609, cis-4-(4-((2-(3,5-dichloro-4-pyridinyl)ethyl)((1-fluorocyclopentyl)methyl)carbamoyl)-5-(trifluoromethyl)-1H-pyrazol-1-yl)cyclohexanecarboxylic acid] | 95.5 |
| O=C(CN(C(=O)c1cnn([C@H]2CC[C@@H](C(=O)O)CC2)c1C(F)(F)F)C1CCC12CCCC2)c1c(Cl)cccc1Cl (stereo in doubt) [Example 627, cis-4-(4-((2-(2,6-dichlorophenyl)-2-oxoethyl)((1R)-spiro[3.4]oct-1-yl)carbamoyl)-5-(trifluoromethyl)-1H-pyrazol-1-yl)cyclohexanecarboxylic acid] | 64.6 |
| C[C@@H]1C[C@@H](n2ncc(C(=O)N(CC(=O)c3c(Cl)cncc3Cl)CC3(F)CC3)c2C(F)(F)F)CC[C@@H]1C(=O)O (stereo in doubt) [Example 736, (1S,2R,4S)-4-(4-((2-(3,5-dichloro-4-pyridinyl)-2-oxoethyl)((1-fluorocyclopropyl)methyl)carbamoyl)-5-(trifluoromethyl)-1H-pyrazol-1-yl)-2-methylcyclohexanecarboxylic acid] | 110 |
| C[C@H]1C[C@H](n2ncc(C(=O)N(CC(=O)c3c(Cl)cncc3Cl)CC3(F)CC3)c2C(F)(F)F)CC[C@H]1C(=O)O (stereo in doubt) [Example 737, (1R,2S,4R)-4-(4-((2-(3,5-dichloro-4-pyridinyl)-2-oxoethyl)((1-fluorocyclopropyl)methyl)carbamoyl)-5-(trifluoromethyl)-1H-pyrazol-1-yl)-2-methylcyclohexanecarboxylic acid] | 14.1 |
| C[C@H]1C[C@H](n2ncc(C(=O)N(CC(=O)c3c(Cl)cncc3Cl)C[C@@H]3CCC(C)(C)O3)c2C(F)(F)F)CCC1C(=O)O (stereo in doubt) [Example 773, (1S,2S,4R)-4-(4-((2-(3,5-dichloro-4-pyridinyl)-2-oxoethyl)(((2S)-5,5-dimethyltetrahydro-2-furanyl)methyl)carbamoyl)-5-(trifluoromethyl)-1H-pyrazol-1-yl)-2-methylcyclohexanecarboxylic acid] | 81.3 |
| C[C@@H]1CC(n2ncc(C(=O)N(CC(=O)c3c(Cl)cccc3Cl)CC(C)(C)C)c2C(F)(F)F)CCC1C(=O)O (stereo in doubt) [Example 794, (1S,2R,4S)-4-(4-((2-(2,6-dichlorophenyl)-2-oxoethyl)(2,2-dimethylpropyl)carbamoyl)-5-(trifluoromethyl)-1H-pyrazol-1-yl)-2-methylcyclohexanecarboxylic acid] | 2.95 |
| C[C@H]1C[C@](C)(C(=O)O)CC[C@H]1n1ncc(C(=O)N(CC(=O)c2c(Cl)cncc2Cl)CC(C)(C)C)c1C(F)(F)F (stereo in doubt) [Example 842, (1R,3S,4R)-4-(4-((2-(3,5-dichloro-4-pyridinyl)-2-oxoethyl)(2,2-dimethylpropyl)carbamoyl)-5-(trifluoromethyl)-1H-pyrazol-1-yl)-1,3-dimethylcyclohexanecarboxylic acid] | 309 |
